21 compounds from ChEMBL document CHEMBL1134096, “Discovery and characterization of the potent, selective and orally bioavailable MMP inhibitor ABT-770” (Bioorg Med Chem Lett, 2001) can be followed below.

One data set has as its target Stromelysin-1 (Homo sapiens, UniProt P08254). Kind of data set: Inhibition of Matrix metalloprotease-3.
Another data set deals with T1, Matrilysin (Homo sapiens, UniProt P09237).
T1 sequence (P09237 whole entry): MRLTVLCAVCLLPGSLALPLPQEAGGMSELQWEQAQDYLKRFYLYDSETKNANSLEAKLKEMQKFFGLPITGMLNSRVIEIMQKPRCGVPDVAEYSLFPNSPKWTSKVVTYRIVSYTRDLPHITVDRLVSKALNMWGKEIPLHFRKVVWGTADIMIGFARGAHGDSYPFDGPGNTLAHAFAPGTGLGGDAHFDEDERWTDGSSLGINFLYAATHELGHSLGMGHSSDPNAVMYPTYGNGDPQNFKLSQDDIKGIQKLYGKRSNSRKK
Kind of data set: Inhibition of Matrix metalloprotease-7.

For data set [1], the target named is Matrix metalloproteinase-9 (Homo sapiens, UniProt P14780). Kind of data set: Inhibition of matrix metalloprotease-9.
Chain of Matrix metalloproteinase-9 (P14780 whole entry): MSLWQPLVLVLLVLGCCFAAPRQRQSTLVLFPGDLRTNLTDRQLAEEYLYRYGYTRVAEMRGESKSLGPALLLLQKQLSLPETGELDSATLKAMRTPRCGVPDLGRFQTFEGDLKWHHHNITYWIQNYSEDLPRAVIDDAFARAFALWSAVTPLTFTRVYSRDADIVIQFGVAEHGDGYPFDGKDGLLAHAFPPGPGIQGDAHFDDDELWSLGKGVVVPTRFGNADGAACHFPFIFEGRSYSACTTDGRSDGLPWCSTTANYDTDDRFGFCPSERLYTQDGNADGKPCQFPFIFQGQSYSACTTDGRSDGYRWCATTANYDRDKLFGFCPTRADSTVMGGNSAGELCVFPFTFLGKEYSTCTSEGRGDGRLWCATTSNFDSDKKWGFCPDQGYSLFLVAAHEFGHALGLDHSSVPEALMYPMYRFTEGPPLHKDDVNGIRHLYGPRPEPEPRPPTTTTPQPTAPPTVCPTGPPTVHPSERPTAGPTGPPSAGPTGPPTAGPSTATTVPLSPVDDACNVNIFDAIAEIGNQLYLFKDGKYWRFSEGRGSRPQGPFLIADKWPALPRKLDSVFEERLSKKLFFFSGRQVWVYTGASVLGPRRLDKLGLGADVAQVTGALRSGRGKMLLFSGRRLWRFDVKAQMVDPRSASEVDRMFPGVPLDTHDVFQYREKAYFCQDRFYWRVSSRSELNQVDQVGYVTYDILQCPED
In a further data set the target is T2, Interstitial collagenase (Homo sapiens, UniProt P03956).
T2 sequence (P03956 whole entry): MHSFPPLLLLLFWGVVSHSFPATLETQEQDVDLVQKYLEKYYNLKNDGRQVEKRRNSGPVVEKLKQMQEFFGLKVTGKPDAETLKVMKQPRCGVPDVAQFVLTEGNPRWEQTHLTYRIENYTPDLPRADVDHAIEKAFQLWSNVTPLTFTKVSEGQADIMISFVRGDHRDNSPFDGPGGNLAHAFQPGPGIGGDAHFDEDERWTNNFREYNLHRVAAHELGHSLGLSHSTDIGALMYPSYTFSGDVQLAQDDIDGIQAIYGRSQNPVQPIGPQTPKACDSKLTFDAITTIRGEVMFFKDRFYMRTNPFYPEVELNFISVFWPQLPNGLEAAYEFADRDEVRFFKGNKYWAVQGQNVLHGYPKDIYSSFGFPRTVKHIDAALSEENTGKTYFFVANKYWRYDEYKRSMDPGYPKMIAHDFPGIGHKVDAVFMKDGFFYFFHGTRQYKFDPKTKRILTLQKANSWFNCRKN
In words: In vitro inhibition of human Matrix metalloprotease-1.

Data set [2] has as its target 72 kDa type IV collagenase (Homo sapiens, UniProt P08253). In words: In vitro inhibition of human Matrix metalloprotease-2.
The nature of data set [3]: Half-life was determined in monkey after 3 mg/kg of i.v. dose. The format is ADME, organism-based. Further details: dose 3 mg/kg, route intravenous. The conditions noted are these: cercopithecidae, in vivo, iv.
The nature of data set [4]: Area under curve was determined in monkey after a 3 mg/kg of oral dose. The format is ADME, organism-based. Further details: dose 3 mg/kg, route oral. The conditions noted are these: cercopithecidae, in vivo.
The nature of data set [5]: Volume of distribution was determined in rat after a 3 mg/kg of iv dose. The format is ADME, organism-based. Also noted: dose 3 mg/kg, route intravenous. To be noted: in vivo, read-out: V.
The nature of data set [6]: Half-life was determined in dog after a3 mg/kg of iv dose. The format is ADME, organism-based, Canis lupus familiaris. The conditions noted are these: in vivo, 3 mg/kg.
Data set [7] is described as follows: Absolute bioavailability was evaluated in dog. The format is ADME, organism-based, Canis lupus familiaris. The conditions noted are these: in vivo.
A short description of data set [8]: Volume of distribution was determined in dog after a 3 mg/kg of iv dose. The format is ADME, organism-based, Canis lupus familiaris. Further details: dose 3 mg/kg, route intravenous. The conditions noted are these: in vivo, read-out: V.
Data set [9] is described as follows: Area under curve was determined in dog after a 3 mg/kg of oral dose. Also noted: dose 3 mg/kg, route oral. The format is ADME, organism-based, Canis lupus familiaris. To be noted: in vivo.
Data set [10] in a line: Plasma clearance value was determined in monkey after a 3 mg/kg of iv dose. The format is ADME, organism-based. Further details: dose 3 mg/kg, route intravenous. The conditions noted are these: cercopithecidae, in vivo.
A short description of data set [11]: Absolute bioavailability was evaluated in monkey. The conditions noted are these: cercopithecidae, in vivo. The format is ADME, organism-based.
Data set [12] in a line: Volume of distribution was determined in monkey after a 3 mg/kg of iv dose. The format is ADME, organism-based. Also noted: dose 3 mg/kg, route intravenous. The conditions noted are these: cercopithecidae, in vivo, read-out: V.
For a further data set, the system named is Canis familiaris. In words: Plasma clearance value was determined in dog after a 3 mg/kg of iv dose. The format is ADME, organism-based, Canis lupus familiaris. Also noted: dose 3 mg/kg, route intravenous. To be noted: in vivo.
Data set [13] is described as follows: Absolute bioavailability was evaluated in rat. To be noted: in vivo. The format is ADME, organism-based.
Data set [14] can be described thus: Area under curve was determined in rat after a 3 mg/kg of oral dose. The format is ADME, organism-based. Further details: dose 3 mg/kg, route oral. To be noted: in vivo.
The next data set deals with Rattus norvegicus. Kind of data set: Plasma clearance value was determined in rat after a 3 mg/kg of iv dose. The format is ADME, organism-based. Further details: dose 3 mg/kg, route intravenous. The conditions noted are these: in vivo.
A further data set has as its system B16. In words: Maximal effective dose against growth of B16 melanoma cells implanted subcutaneously in flank of mice. The format is functional, Mus musculus.
The test system of another data set is Mus musculus. In words: Increase in life span corresponding to 6.5 day delay to 1 g tumor weight at 100 mg/kg of oral dose in mice. The format is functional. To be noted: 156 h.

Several values for one entry are separate records, joined by “and”; a condition that tells them apart may be missing. Equal entries are not always repeated.

Chain of 72 kDa type IV collagenase (P08253 whole entry): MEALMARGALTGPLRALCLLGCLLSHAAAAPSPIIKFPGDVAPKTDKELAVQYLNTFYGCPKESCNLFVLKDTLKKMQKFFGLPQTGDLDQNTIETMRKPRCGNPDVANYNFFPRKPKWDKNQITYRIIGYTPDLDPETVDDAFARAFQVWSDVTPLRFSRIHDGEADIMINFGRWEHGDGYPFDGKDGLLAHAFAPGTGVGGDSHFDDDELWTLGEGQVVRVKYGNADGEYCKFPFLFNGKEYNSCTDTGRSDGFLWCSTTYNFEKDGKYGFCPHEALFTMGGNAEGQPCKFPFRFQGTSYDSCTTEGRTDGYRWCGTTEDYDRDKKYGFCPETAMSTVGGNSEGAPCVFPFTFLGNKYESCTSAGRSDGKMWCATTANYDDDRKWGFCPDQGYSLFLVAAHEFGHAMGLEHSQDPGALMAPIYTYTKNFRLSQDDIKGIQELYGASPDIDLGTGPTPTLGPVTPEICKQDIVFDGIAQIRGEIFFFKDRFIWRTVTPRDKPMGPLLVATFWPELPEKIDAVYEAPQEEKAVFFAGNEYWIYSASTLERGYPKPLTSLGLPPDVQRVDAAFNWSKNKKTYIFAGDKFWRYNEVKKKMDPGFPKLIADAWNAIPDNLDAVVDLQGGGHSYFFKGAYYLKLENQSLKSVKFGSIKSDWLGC
Chain of Stromelysin-1 (P08254 whole entry): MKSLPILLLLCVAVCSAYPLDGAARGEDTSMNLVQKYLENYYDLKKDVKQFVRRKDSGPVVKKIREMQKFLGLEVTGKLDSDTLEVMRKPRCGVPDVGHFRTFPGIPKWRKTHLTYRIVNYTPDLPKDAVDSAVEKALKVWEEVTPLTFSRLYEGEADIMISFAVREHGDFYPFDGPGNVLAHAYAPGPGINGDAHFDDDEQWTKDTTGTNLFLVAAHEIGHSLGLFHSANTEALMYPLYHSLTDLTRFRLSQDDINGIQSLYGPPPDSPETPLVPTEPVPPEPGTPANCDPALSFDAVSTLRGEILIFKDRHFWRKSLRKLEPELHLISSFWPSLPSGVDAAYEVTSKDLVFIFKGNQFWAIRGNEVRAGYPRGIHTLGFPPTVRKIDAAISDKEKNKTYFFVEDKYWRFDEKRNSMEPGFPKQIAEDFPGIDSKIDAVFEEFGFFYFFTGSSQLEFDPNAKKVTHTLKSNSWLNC

On to `CC1(C)NC(=O)N(C[C@H](COc2ccc(-c3ccc(OC(F)(F)F)cc3)cc2)N(O)C=O)C1=O`, for which the IC50 against Stromelysin-1 was 3.1 µM; against Matrilysin, > 10 µM; in [1], 1.2 µM; at Interstitial collagenase it was > 10 µM; in [2], 0.18 µM.
Turning to `CN1C(=O)N(CC(COc2ccc(-c3cccnc3)cc2)N(O)C=O)C(=O)C1(C)C` (stereo not drawn), the half-inhibitory concentration (IC50) (against Interstitial collagenase; in [2]) was > 10 µM throughout.
`CCCCc1ccc(-c2ccc(OCC(CN3C(=O)NC(C)(C)C3=O)N(O)C=O)cc2)cc1` (stereo not drawn) gave a half-life in [3] of 1 h. Also, the IC50 at Interstitial collagenase is > 10 µM; in data set [2] it was 0.016 µM.
The matching figures for `CC1(C)NC(=O)N(CC(COc2ccc(-c3ccc(S(C)(=O)=O)cc3)cc2)N(O)C=O)C1=O` (stereo not drawn): 5 h, 4.9 µM and 0.048 µM.
The matching figures for `CC1(C)NC(=O)N(CC(COc2ccc(-c3ccc(OC(F)(F)F)cc3)cc2)N(O)C=O)C1=O` (stereo not drawn): 20 h, 8.6 µM and 0.006 µM.
On to `CN1C(=O)N(CC(COc2ccc(-c3cccs3)cc2)N(O)C=O)C(=O)C1(C)C` (stereo not drawn), for which the results for the IC50 (against Interstitial collagenase; in data set [2]) were 3.6 µM and 0.13 µM, respectively.
The matching figures for `CC1(C)NC(=O)N(CC(COc2ccc(-c3ccc(C(F)(F)F)cc3)cc2)N(O)C=O)C1=O` (stereo not drawn): 0.84 µM and 0.02 µM.
As for `CC1(C)NC(=O)N(C[C@@H](COc2ccc(-c3ccc(OC(F)(F)F)cc3)cc2)N(O)C=O)C1=O`, the T1/2 in data set [3] is 8 h and 21 h. In addition, the values for the area under the curve (AUC) in data set [4], in [9] and in data set [14] were 43000 ng·h/mL, 23000 ng·h/mL and 24000 ng·h/mL, respectively. For the same compound, the Vd came out at 1.2 L/kg in [5], 0.9 L/kg in data set [8] and 1.2 L/kg in data set [12]. In [6], this compound had a half-life of 9 h. Moreover, the bioavailability in data set [7] is 83%; in data set [11], 95%; in data set [13] it was 93%. In addition, the Clp in [10] was 1.13 mL/min/kg; in the data set with Canis familiaris, 1.83 mL/min/kg; with Rattus norvegicus, 2 mL/min/kg. The compound also registered an Effective dose in the data set on B16 of 300 mg/kg. Also, the IC50 is 0.042 µM on Stromelysin-1; > 10 µM against Matrilysin; 0.12 µM in [1]; 4.6 µM at Interstitial collagenase; 0.004 µM in data set [2]. The same compound had an ILS at 100 mg/kg in the data set on Mus musculus of 46%.
On to `COCCOc1ccc(-c2ccc(OCC(CN3C(=O)NC(C)(C)C3=O)N(O)C=O)cc2)cc1` (stereo not drawn), for which the half-life in [3] is 1 h. For the same compound, the IC50 is > 10 µM against Interstitial collagenase and 0.004 µM in data set [2].
As to `CN1C(=O)N(CC(COc2cccc(-c3ccc(C#N)cc3)c2)N(O)C=O)C(=O)C1(C)C` (stereo not drawn), the IC50 (on Interstitial collagenase; in [2]) was > 10 µM each time.
Take `CCCOc1ccc(-c2ccc(OCC(CN3C(=O)NC(C)(C)C3=O)N(O)C=O)cc2)cc1` (stereo not drawn): the half-life in data set [3] is 1 h. Further, the results for the IC50 (on Interstitial collagenase; in data set [2]) were > 10 µM and 0.004 µM, respectively.
With `CN1C(=O)N(CC(COc2ccc(-c3ccco3)cc2)N(O)C=O)C(=O)C1(C)C` (stereo not drawn), the results for the IC50 (against Interstitial collagenase; in data set [2]) were 1.6 µM and 0.085 µM, respectively.
In the same order, the values of `CCCCCOc1ccc(-c2ccc(OCC(CN3C(=O)NC(C)(C)C3=O)N(O)C=O)cc2)cc1` (stereo not drawn) are > 10 µM and 0.026 µM.
The matching figures for `C=Cc1ccc(-c2ccc(OCC(CN3C(=O)N(C)C(C)(C)C3=O)N(O)C=O)cc2)cc1` (stereo not drawn): > 10 µM and 0.061 µM.
For `Cc1ccc(-c2ccc(OCC(CN3C(=O)N(C)C(C)(C)C3=O)N(O)C=O)cc2)cc1` (stereo not drawn), the results for the IC50 (against Interstitial collagenase; in data set [2]) were 1.6 µM and 0.02 µM, respectively.
For the compound `CN1C(=O)N(CC(COc2ccc(-c3ccc(C#N)cc3)cc2)N(O)C=O)C(=O)C1(C)C` (stereo not drawn), half-maximal inhibition in data set [2] (IC50) was put at 0.058 µM.
As to `CN1C(=O)N(CC(COc2ccc(-c3ccccc3)cc2)N(O)C=O)C(=O)C1(C)C` (stereo not drawn), the IC50 against Interstitial collagenase was determined as 1.1 µM; in data set [2], 0.089 µM.
As to `CN1C(=O)N(CC(COc2ccc(-c3cccc(C#N)c3)cc2)N(O)C=O)C(=O)C1(C)C` (stereo not drawn), the 50% inhibitory concentration (IC50) at Interstitial collagenase was > 10 µM; in data set [2] it was 1.3 µM.
For the compound `CC1(C)NC(=O)N(CC(COc2ccc(-c3ccc(C#N)cc3)cc2)N(O)C=O)C1=O` (stereo not drawn), the half-life in data set [3] was 8 h. Also, the 50% inhibitory concentration (IC50) worked out at 2.1 µM against Interstitial collagenase and 0.008 µM in data set [2].
Take `CCOc1ccc(-c2ccc(OCC(CN3C(=O)NC(C)(C)C3=O)N(O)C=O)cc2)cc1` (stereo not drawn): the IC50 on Interstitial collagenase amounted to 1 µM; in [2] it was 0.001 µM.
As for `COc1ccc(-c2ccc(OCC(CN3C(=O)N(C)C(C)(C)C3=O)N(O)C=O)cc2)cc1` (stereo not drawn), the IC50 in data set [2] was 0.004 µM.
